Series [1] in a line: UV-metric pKa measurement (SiriusT3). Type of series: physicochemical. The following applies: experimental, SiriusT3, 25 °C, mean ± S.D. The protocol: Experimental pKa (−log10 of the acid dissociation equilibrium constant) values of SGC and SGD were evaluated using the UV-metric pKa measurement method of the SiriusT3 automated titrator instrument and the corresponding software SiriusT3Control and SiriusT3Refine (Pion Inc., Billerica, USA). The SiriusT3 apparatus uses a deuterium lamp to determine the UV/Vis absorbance spectrum of the test solutions at each pH point. The standard aqueous UV-metric pKa measurement protocol was conducted according to manufacturer instructions. […] This was mixed with 25 μL phosphate buffer (14.7 mM K2HPO4 and 0.15 M KCl in MilliQ water) and diluted with 1.5 mL ionic strength-adjusted water (ISA water ≡ 0.15 M KCl in MilliQ water). The subsequent acid/base titration and measurement of UV absorbance was automatically performed by the SiriusT3 at 25.0 ± 0.5 °C. […] Turbidity was monitored by a turbidity sensor to ensure the absence of precipitation of the test compounds during the experiment, since accurate pKa measurements are limited to fully dissolved substances. In case turbidity occurred, individual titrations were not used for further analysis, resulting in a total of 11 analysable titrations across the 5 replicate samples for both SGC and SGD.

Series [2] can be described thus: potentiometric logP, water-octanol (SiriusT3). Type of series: physicochemical. The following applies: octanol/water, experimental, mean ± S.D., n = 3, read-out: logP. The protocol: LogP (partition coefficient) evaluation was performed via SiriusT3. The potentiometric logP measurement relies on assessing the partition profile of the test substance within a two-phase water-octanol solvent system. Changes in the relative volume ratio of octanol to water lead to shifts in the apparent pKa, resulting from the partitioning between non-ionised and ionised forms. LogP values were then estimated based on these assessments.

For series [3], the system named is Calu-3 monolayer.
Series [4] concerns Calu-3 monolayer. The source holds these as a separate data set.
For series [5], the system named is SARS-CoV-2. Set-up: method as in Wasilewicz et al., 2023. As to conditions: reported to be based on inhibition of the viral main protease, ref Wasilewicz et al., 2023; read-out: anti-SARS-CoV-2 activity IC50; cited from earlier work.
Series [6] deals with Calu-3 cells. In words: Calu-3 cell uptake, FIA-TOFMS. The series is classed as in vitro ADME, human. As to conditions: 50 µg/mL; for Concentration [pg/µL] 1 in cell extract / Normalized concentration [pg/cell] 1: replicate 1; for Concentration [pg/µL] 2 in cell extract / Normalized concentration [pg/cell] 2: replicate 2; for Concentration [pg/µL] 3 in cell extract / Normalized concentration [pg/cell] 3: replicate 3. The protocol: At 4, 12, and 24 h after addition, cell extracts were generated in triplicates. To that end, the medium was aspirated from the respective wells, and cells were washed with pre-warmed ammonium carbonate solution (75 mM, pH 7.4, 37 °C). Immediately after removal of the wash solvent, 300 μL cold extraction solvent (40:40:20 acetonitrile:methanol:water, −20 °C) was added per well to lyse cells in situ and stop the enzymatic activity. The bottom of each well was subsequently scraped and the cell extracts were transferred to 96-well storage plates and stored at −80 °C until analysis. […] Quantification of SGC and SGD was performed using flow-injection time-of-flight mass spectrometry (FIA-TOFMS) in negative ion mode as described previously ([Fuhrer et al., 2011]). SGC and SGD signals were identified by matching accurate masses (for both [M-H]- at 707.2127 m/z). To account for possible influences of the complex matrix in the cell extract samples, a matrix-matched series of calibration samples were prepared, in which increasing concentrations of SGC were spiked into extracts of cells that had not previously been treated with either SGC or SGD. The calibration samples were injected alongside the cell extract samples and used to establish a calibration function using linear regression. The ion intensities measured were converted into SGC and SGD concentrations and normalized by the cell number in each sample, which was determined at each time point in separate cell cultures using trypan blue staining and cell counting in a Thermo Fisher Countess II Automated cell counter after trypsin-mediated cell detachment. This procedure eventually yielded estimates of SGC and SGD contents in pg/cell.

The nature of series [7]: Calu-3 cell viability, MTT assay. The following applies: human.
The nature of series [8]: pH-dependent thermodynamic solubility, miniaturized shake-flask method, UPLC-PDA. As to conditions: for solubility thermodynamic at 24 h: 24 °C, thermodynamic from solid.
For series [9], the system named is lung epithelial monolayers. The following applies: cited from earlier work.
For series [10], the system named is Calu-3 monolayer. This is another data set of the same source.

≈ marks a conversion by molar mass, not a printed value. Read-outs that look alike come from different tables or passages of the source.

As for `CC(C)=CC[C@]12Oc3cc(O)c([C@H]4C=C(C)C[C@H](c5ccc(O)cc5O)[C@H]4C(=O)c4ccc(O)cc4O)c(O)c3C(=O)[C@@]1(O)Oc1cc(O)ccc12` [SGC, sanggenon C], the pKa in [1] (read-out: pKa 1) was found to be 2.64 ± 0.69; in series [1] (read-out: pKa 2), 5.2 ± 0.8; in [1] (read-out: pKa 3), 6.74 ± 0.14; in [1] (read-out: pKa 4) it was 7.97 ± 0.06; in [1] (read-out: pKa 5), 9 ± 0.04; in [1] (read-out: pKa 6), 9.84 ± 0.05. For the same compound, the pKa in [1] (read-out: pKa 7) worked out at 10.7 ± 0.02; in [1] (read-out: pKa 8) it was 12.05 ± 0.07. Besides, the logP in series [2] was in the range of 3 to 3.5. Besides, in series [3], the “evidence for permeability of SGC or SGD” value was “Neither by applying the isolated compounds nor the extracts MA60 and MA21, any evidence for the permeability of SGC or SGD was detectable”. In addition, the “permeability across intact Calu-3 monolayers” value in [3] was “no measurable permeability”. Also, in series [4], the “change in TEER during permeability study, B-A direction” value is reported as “a decrease in TEER values was also observed”. Moreover, in [5], the IC50 was 7.2 µM. Further, the “intracellular content, Mean [pg/cell]” value in series [6] (4 h) worked out at 2.0 ± 0.1 pg/cell; in series [6] (4 h, listed as Sanggenon C) it was 1.96 pg/cell; in series [6] (12 h) it was 5.54 pg/cell; in series [6] (24 h), 8.1 ± 0.3 pg/cell; in [6] (24 h, listed as Sanggenon C), 8.10 pg/cell. Also, the “Concentration [pg/µL] 1 in cell extract” value came to 4284 pg/µL in series [6] (4 h), 13620 pg/µL in [6] (12 h) and 17926 pg/µL in series [6] (24 h). Further, the “Normalized concentration [pg/cell] 1” value came to 2.09 pg/cell in series [6] (4 h), 5.77 pg/cell in series [6] (12 h) and 8.34 pg/cell in series [6] (24 h). For the same compound, the “Concentration [pg/µL] 2 in cell extract” value in series [6] (4 h) amounted to 3851 pg/µL; in series [6] (12 h) it was 13397 pg/µL; in series [6] (24 h) it was 16862 pg/µL. In addition, the “Normalized concentration [pg/cell] 2” value in [6] (4 h) worked out at 1.88 pg/cell; in series [6] (12 h), 5.67 pg/cell; in series [6] (24 h) it was 7.85 pg/cell. For the same compound, the “Concentration [pg/µL] 3 in cell extract” value in series [6] (4 h) amounted to 3902 pg/µL; in series [6] (12 h), 12248 pg/µL; in series [6] (24 h) it was 17411 pg/µL. Besides, the “Normalized concentration [pg/cell] 3” value is given as 1.90 pg/cell in [6] (4 h), 5.19 pg/cell in series [6] (12 h) and 8.11 pg/cell in [6] (24 h). In series [7], this compound registered a CC50 at 24 h of 47.8 µg/mL (≈ 67.4 µM). For the same compound, the thermodynamic solubility at 24 h in series [8] (HCl buffer, pH 1.2, simulated gastric fluid) was 4.47 µg/mL (≈ 6.31 µM); in series [8] (acetate buffer, pH 4.5, aqueous buffer) it was 8.53 µg/mL (≈ 12 µM); in [8] (phosphate buffer, pH 6.8, aqueous buffer), 18.5 µg/mL (≈ 26.1 µM); in series [8] (phosphate buffer, pH 7.4, aqueous buffer), 47.1 µg/mL (≈ 66.5 µM). Also, the “pH 1.2 solubility” value in series [8] (compound within extract MA21, pH 1.2) is “< LOQ”; in [8] (compound within extract MA60, pH 1.2), 6.88 µg/mL. The “pH 4.5 solubility” value in series [8] (compound within extract MA21, pH 4.5) was “< LOQ”; in series [8] (compound within extract MA60, pH 4.5), “< LOQ”. Also, the “pH 6.8 solubility” value in series [8] (compound within extract MA21, pH 6.8) was found to be 4.05 µg/mL; in [8] (compound within extract MA60, pH 6.8) it was 12.7 µg/mL. The “pH 7.4 solubility” value in [8] (compound within extract MA21, pH 7.4) worked out at 3.24 µg/mL; in [8] (compound within extract MA60, pH 7.4), 13.6 µg/mL.
Turning to `C[C@H]1[C@H](NC(=O)/C(=N\OC(C)(C)C(=O)O)c2csc(N)n2)C(=O)N1S(=O)(=O)O` [aztreonam], in series [9], the Papp was 0.07 ± 0.02 × 10^−6 cm/s.
As to `O=C1OC2(c3ccc(O)cc3Oc3cc(O)ccc32)c2ccccc21` [fluorescein], the “fluorescein permeation across Calu-3 monolayer” value in series [10] is on record as “no fluorescein permeation was detected”.
As to `NC[C@H]1O[C@H](O[C@H]2[C@H](O)[C@@H](O[C@H]3O[C@H](CO)[C@@H](O)[C@H](N)[C@H]3O)[C@H](N)C[C@@H]2N)[C@H](N)C[C@@H]1O` [tobramycin], in [9], the Papp is less than 5e-08 cm/s.
Consider colistin, for which, in series [9], the Papp is given as 0.04 ± 0.02 × 10^−6 cm/s.
